Earlier results on 3 molecules are cited in patent publication US20250360119A1, “THIAZOLIDINEDIONES FOR THE TREATMENT OF MUSCULAR DYSTROPHIES” (The Johns Hopkins University, priority 2022, published 2025).

The test system of data set [1] is KKAy mice.
For data set [2] the following is noted: clinical studies.
Data set [3] concerns aged mice. The settings on record: injected into the muscle directly.

On to `CC1(COc2ccc(CC3SC(=O)NC3=O)cc2)CCCCC1` (stereo not shown) [ciglitazone, 5-[4-(1-methylcyclohexylmethoxy)benzyl]-thiazolidine-2,4-dione], for which, in data set [1], the blood glucose levels result is listed as “reduce blood glucose levels without increasing insulin secretion” and the peripheral insulin resistance result is recorded as “reduce peripheral insulin resistance”.

For `CN(CCOc1ccc(CC2SC(=O)NC2=O)cc1)c1ccccn1` (stereo not shown) [rosiglitazone], the cardiovascular toxicity result in data set [2] was “no longer considered significant issues”.

B1: recombinant GDF3: recombinant Growth Differentiation Factor 3, a member of the TGFβ family (protein, UniProt Q9NR23 251-364, looked up)
Growth/differentiation factor …: AAIPVPKLSCKNLCHRHQLFINFRDLGWHKWIIAPKGFMANYCHGECPFSLTISLNSSNYAFMQALMHAVDPEIPQAVCIPTKLSPISMLYQDNNDNVILRHYEDMVVDECGCG
In the case of B1, the “delay in muscle regeneration after CTX injury” value in data set [3] is recorded as “able to alleviate some of the delay”.
